From ChEMBL document CHEMBL1201862, “PubChem BioAssay data set” (2004)
Activity calls are given as the source filed them.

Tests used:
[1] = biological target: SWI/SNF-related matrix-associated actin-dependent regulator of chromatin subfamily A member 2 (Homo sapiens, UniProt P51531); experiment: Luminescence-based cell-based high throughput dose response assay to identify activators of the function of SWI/SNF related, matrix associated, actin dependent regulator of chromatin, subfamily a, member 2 (SMARCA2, BRM).; assay type: functional
[2] = Counterscreen for activators of the function of SWI/SNF related, matrix associated, actin dependent regulator of chromatin, subfamily a, member 2 (SMARCA2, BRM): Luminescence-based cell-based high throughput dose response assay to identify non-selective compounds using the VP16 reporter assay.; assay type: functional
[3] = biological target: Tyrosyl-DNA phosphodiesterase 2 (Homo sapiens, UniProt O95551); experiment: human TDP2 enzyme inhibitors, dose response, biochemical, epi absorbance, IC50 (AID 743297)
[4] = biological target: Long-chain-fatty-acid--AMP ligase FadD28 (Mycobacterium tuberculosis, UniProt P9WQ59); experiment: Fluorescence polarization aasay to screen for inhibitors that compete for the binding of FadD28 to a bisubstrate Measured in Biochemical System Using Plate Reader - 2147-01_Inhibitor_Dose_CherryPick_Activity.; assay type: functional, Mycobacterium tuberculosis H37Rv
[5] = biological target: Fructose-bisphosphate aldolase (Mycobacterium tuberculosis, UniProt P9WQA3); experiment: Fluorescence-based biochemical high throughput dose response assay for inhibitors of the fructose-bisphosphate aldolase (FBA) of M. tuberculosis.; assay type: functional
[6] = HEK293T cytotoxicity, dose response, cytotoxicity control for miR-122 modulator project, cell-based, inhibitor set, cherry-pick, set 2 (AID 720697); assay type: functional
[7] = biological target: Galanin receptor type 3 (Homo sapiens, UniProt O60755); experiment: Fluorescence-based cell-based primary high throughput dose response assay to identify antagonists of the Galanin Receptor 3 (GalR3).; assay type: functional
[8] = cells; assay type: functional, cell-based; conditions: HEK-CNG
[9] = human group III sPLA2 inhibitors, dose response, biochemical, QFRET, IC50 (AID 743457);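 note: green fluorescence rise as the enzyme cleaves BODIPY PC-A2 in liposomes; potency for inhibition of the enzyme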
[10] = biological target: Beta-galactosidase (Escherichia coli, UniProt Q8VNN2); experiment: Dose response counterscreen for EBI2 assay utilizing the enzyme, b-galactosidase.; assay type: functional
[11] = biological target: T1, Endoribonuclease toxin MazF (Escherichia coli K-12, UniProt P0AE70); experiment: MazF toxin RNase activators, dose response, biochemical, fluorescence, single-stranded RNA substrate, uHTS hits (AID 588481); assay type: functional
T1 sequence (P0AE70 whole entry): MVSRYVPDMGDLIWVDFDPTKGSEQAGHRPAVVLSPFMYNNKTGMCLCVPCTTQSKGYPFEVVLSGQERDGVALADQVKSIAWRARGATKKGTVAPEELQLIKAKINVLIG

[12] = biological target: T2, Sentrin-specific protease 1 (Homo sapiens, UniProt Q9P0U3); experiment: potency of human SENP1 inhibitors, dose response, biochemical, kinetic FRET (AID 651697); assay type: functional; conditions: read-out: IC50_Mean
T2 sequence (Q9P0U3 whole entry): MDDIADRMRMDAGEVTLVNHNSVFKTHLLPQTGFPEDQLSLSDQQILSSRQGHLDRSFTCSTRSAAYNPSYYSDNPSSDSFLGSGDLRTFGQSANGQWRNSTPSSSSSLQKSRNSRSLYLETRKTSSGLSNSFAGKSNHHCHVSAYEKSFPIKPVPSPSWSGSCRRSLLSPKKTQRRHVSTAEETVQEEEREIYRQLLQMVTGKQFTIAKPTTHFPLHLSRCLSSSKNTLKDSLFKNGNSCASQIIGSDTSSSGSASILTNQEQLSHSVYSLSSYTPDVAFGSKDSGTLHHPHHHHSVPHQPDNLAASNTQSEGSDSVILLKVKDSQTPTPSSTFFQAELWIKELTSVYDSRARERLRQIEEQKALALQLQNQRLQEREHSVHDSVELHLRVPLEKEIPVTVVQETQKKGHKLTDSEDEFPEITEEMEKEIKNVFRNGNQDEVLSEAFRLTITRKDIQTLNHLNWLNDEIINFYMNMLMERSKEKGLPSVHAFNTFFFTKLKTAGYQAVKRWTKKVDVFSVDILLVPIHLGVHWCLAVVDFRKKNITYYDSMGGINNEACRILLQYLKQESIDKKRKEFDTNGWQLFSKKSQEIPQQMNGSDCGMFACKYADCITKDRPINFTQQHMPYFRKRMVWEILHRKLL

[13] = biological target: T1, Endoribonuclease toxin MazF; experiment: fluorescent RNA oligo signal without MazF, dose response, counter-screen for MazEF activator project, biochemical, fluorescence, single-stranded RNase substrate (AID 588502); assay type: functional
[14] = biological target: T2, Sentrin-specific protease 1; experiment: Dose response confirmation of small molecule inhibitors of the catalytic domain of the SUMO protease, SENP1 in a FRET assay.; assay type: functional; conditions: read-out: IC50_Mean
[15] = biological target: T3, DNA repair and recombination protein RAD54-like (Homo sapiens, UniProt Q92698); experiment: inhibitors of human RAD54 branch migration, confirmation, biochemical, fluorescence, cherry-picked samples, dose series (AID 651657); assay type: functional
T3 sequence (Q92698 whole entry): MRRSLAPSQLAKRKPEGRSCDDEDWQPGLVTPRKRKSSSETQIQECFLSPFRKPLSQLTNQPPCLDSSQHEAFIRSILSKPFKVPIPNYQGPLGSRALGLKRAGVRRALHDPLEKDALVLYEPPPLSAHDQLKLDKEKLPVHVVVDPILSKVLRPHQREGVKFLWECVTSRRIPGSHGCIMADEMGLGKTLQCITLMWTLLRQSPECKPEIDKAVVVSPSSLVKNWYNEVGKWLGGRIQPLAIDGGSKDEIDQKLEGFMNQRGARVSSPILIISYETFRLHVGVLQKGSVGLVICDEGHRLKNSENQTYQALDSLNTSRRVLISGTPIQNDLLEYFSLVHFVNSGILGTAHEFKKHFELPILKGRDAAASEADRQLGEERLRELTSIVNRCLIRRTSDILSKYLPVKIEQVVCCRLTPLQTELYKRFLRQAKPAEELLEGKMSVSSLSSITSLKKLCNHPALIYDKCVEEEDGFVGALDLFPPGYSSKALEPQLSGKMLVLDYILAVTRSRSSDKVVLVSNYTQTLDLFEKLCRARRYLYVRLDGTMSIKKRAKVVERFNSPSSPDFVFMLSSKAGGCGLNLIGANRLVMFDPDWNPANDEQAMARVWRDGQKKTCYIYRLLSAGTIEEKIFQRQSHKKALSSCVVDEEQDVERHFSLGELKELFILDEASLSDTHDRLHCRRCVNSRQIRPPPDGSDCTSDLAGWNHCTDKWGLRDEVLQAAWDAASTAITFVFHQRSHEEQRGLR

[16] = biological target: Albumin (Bos taurus, UniProt P02769); experiment: Counterscreen for inhibitors of T-cell receptor (TCR)-CD3 interaction: Fluorescence-based biochemical high throughput dose response assay to identify inhibitors of T-cell receptor (TCR)-CD3 interaction using a TAMRA-labeled BSA probe.; assay type: functional
[17] = biological target: Genome polyprotein (dengue virus type 2, UniProt P29990); experiment: Dengue-2 NS5 methyltransferase inhibitors, primary screen, biochemical, confirmation dose response (AID 588689); assay type: functional
[18] = biological target: T4, Protein RecA (Mycobacterium tuberculosis, UniProt P9WHJ3); experiment: Fluorescence Cell-Free Homogeneous Dose Retest to Identify Inhibitors of RecA-Intein Splicing Activity. [Related pubchem assays (depositor defined):AID2097, AID2223, AID489010, AID492950]; assay type: functional
T4 sequence (P9WHJ3 whole entry): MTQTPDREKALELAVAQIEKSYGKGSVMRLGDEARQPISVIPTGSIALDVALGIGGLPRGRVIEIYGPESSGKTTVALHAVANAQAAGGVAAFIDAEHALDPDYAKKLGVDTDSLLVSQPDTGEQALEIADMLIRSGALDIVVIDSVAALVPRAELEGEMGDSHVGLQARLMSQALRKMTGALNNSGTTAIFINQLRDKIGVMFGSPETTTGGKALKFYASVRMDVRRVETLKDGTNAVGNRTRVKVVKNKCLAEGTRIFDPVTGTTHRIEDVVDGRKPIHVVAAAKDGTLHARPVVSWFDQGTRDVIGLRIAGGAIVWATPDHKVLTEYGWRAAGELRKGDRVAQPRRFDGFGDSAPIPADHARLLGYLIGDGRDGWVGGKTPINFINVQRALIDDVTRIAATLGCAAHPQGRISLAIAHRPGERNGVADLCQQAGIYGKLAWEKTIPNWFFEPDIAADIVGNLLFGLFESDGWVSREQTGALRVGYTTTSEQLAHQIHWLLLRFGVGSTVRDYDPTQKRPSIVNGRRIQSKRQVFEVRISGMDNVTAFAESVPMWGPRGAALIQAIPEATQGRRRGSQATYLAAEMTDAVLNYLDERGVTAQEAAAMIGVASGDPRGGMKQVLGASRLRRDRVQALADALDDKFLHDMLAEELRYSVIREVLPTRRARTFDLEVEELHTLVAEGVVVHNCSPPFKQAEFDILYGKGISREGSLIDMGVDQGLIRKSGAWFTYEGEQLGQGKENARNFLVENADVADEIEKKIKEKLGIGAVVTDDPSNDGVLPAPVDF

[19] = biological target: T5, Replicative DNA helicase DnaB (Mycobacterium tuberculosis, UniProt P9WMR3); experiment: DnaB intein splicing inhibitors, dose response, biochemical, cell-free fluorescence (AID 449749); assay type: functional
T5 sequence (P9WMR3 whole entry): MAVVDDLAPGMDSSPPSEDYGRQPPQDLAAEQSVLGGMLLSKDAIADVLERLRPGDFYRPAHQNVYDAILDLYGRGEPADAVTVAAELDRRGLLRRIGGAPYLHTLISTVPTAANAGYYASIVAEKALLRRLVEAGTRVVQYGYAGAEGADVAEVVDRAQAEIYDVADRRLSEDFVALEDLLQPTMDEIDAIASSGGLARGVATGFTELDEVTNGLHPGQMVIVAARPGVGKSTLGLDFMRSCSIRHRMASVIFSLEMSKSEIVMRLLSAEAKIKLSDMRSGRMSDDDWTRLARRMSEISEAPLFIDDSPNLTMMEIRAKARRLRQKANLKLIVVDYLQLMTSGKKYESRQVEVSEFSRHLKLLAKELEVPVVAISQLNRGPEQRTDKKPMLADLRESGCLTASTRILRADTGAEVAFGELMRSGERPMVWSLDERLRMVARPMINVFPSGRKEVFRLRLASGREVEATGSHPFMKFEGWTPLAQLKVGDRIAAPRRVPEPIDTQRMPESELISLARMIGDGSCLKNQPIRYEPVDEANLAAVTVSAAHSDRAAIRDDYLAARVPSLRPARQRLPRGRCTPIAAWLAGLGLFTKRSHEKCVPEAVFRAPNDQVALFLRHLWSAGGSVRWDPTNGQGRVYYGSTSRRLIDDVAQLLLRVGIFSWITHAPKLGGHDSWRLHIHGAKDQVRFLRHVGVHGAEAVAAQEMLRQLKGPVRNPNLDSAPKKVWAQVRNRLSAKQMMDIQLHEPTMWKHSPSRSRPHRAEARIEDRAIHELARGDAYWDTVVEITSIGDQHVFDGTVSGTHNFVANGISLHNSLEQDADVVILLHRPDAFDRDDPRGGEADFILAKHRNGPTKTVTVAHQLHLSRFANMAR

Chain of Long-chain-fatty-acid--AMP ligase FadD28 (P9WQ59 whole entry): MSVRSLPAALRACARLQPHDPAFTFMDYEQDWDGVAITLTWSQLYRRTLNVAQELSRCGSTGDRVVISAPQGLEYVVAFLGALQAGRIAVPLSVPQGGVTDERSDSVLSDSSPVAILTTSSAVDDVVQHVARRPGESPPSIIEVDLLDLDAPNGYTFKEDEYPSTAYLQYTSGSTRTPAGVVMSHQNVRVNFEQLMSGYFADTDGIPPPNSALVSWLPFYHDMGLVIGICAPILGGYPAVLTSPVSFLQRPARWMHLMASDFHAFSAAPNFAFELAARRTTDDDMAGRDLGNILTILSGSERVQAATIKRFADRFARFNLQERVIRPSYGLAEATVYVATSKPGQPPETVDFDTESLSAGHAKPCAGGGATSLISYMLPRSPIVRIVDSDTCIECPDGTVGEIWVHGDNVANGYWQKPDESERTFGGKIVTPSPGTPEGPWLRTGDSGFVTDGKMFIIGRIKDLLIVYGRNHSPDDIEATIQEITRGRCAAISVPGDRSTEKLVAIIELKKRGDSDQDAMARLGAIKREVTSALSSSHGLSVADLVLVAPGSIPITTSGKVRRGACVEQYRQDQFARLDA
Chain of Fructose-bisphosphate aldolase (P9WQA3 whole entry): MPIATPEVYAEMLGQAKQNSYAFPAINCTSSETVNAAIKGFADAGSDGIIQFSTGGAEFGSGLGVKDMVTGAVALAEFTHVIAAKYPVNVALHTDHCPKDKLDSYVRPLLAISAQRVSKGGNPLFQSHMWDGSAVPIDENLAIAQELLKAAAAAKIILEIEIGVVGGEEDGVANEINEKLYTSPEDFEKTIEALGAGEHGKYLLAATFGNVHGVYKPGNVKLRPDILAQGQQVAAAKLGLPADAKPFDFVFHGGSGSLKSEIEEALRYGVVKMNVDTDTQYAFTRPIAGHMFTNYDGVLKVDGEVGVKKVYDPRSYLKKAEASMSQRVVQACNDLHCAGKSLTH
Chain of Galanin receptor type 3 (O60755 whole entry): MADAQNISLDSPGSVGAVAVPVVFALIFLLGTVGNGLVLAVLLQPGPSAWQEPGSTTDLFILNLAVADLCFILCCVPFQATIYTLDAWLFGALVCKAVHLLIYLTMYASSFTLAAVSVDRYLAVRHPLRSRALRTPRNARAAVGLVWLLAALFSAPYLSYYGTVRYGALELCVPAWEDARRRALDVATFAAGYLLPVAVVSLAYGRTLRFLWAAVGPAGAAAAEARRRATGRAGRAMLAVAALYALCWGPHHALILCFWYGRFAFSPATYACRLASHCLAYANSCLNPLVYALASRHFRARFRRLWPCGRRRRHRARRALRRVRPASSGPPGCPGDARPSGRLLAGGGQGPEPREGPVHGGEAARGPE
Chain of Albumin (P02769 whole entry): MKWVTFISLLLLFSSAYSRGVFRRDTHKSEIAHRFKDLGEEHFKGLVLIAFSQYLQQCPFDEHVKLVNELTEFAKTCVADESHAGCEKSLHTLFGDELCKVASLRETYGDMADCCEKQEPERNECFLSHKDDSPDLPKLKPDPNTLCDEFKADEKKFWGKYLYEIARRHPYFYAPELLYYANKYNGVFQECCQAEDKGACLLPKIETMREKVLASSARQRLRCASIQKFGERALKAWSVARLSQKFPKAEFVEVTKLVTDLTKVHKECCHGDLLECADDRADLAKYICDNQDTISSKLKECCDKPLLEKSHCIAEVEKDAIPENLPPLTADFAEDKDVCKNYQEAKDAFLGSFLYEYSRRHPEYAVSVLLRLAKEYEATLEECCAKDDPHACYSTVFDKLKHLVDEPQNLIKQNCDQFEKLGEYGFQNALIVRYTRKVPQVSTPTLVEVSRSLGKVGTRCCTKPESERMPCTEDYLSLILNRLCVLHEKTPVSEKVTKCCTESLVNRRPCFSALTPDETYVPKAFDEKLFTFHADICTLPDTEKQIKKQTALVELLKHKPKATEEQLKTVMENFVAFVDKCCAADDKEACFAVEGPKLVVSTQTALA
Chain of Tyrosyl-DNA phosphodiesterase 2 (O95551 whole entry): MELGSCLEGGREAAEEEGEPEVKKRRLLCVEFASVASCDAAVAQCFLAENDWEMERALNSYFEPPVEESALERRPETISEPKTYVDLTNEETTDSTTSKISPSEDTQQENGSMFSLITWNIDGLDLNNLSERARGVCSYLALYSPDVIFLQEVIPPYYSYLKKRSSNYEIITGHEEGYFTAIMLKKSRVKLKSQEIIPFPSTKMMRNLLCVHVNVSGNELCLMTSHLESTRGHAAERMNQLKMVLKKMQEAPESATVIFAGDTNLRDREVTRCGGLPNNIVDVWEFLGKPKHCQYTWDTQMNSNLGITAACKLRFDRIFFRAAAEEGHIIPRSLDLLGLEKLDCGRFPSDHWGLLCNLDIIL
Chain of Beta-galactosidase (Q8VNN2 whole entry): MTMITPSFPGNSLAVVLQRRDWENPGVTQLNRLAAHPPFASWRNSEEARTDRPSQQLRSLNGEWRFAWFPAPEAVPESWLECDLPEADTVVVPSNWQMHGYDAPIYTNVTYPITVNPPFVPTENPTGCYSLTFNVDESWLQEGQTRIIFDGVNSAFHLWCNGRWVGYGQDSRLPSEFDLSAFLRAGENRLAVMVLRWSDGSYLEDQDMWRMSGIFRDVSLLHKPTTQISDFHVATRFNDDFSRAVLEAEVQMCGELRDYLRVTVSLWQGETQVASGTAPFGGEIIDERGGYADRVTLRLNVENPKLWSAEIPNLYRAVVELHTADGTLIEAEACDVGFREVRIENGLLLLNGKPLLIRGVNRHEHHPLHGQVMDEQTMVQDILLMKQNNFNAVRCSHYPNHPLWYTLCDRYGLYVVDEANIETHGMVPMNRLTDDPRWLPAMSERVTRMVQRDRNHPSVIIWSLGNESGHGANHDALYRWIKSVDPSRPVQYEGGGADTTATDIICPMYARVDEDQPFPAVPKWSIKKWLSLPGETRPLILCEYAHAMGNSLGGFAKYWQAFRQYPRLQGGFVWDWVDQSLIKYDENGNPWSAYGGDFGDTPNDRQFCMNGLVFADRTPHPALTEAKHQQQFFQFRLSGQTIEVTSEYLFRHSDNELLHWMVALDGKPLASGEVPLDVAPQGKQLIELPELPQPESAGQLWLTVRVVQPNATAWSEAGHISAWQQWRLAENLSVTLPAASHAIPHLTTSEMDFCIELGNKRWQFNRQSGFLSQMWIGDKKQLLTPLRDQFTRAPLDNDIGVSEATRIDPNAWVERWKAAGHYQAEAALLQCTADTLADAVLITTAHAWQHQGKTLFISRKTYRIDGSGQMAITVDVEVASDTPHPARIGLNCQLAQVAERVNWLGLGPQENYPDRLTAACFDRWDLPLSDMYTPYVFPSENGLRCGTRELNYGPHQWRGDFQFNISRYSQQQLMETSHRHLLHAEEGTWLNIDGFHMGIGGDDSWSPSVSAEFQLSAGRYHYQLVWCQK
Chain of SWI/SNF-related matrix-associated actin-dependent regulator of chromatin subfamily A member 2 (P51531 whole entry): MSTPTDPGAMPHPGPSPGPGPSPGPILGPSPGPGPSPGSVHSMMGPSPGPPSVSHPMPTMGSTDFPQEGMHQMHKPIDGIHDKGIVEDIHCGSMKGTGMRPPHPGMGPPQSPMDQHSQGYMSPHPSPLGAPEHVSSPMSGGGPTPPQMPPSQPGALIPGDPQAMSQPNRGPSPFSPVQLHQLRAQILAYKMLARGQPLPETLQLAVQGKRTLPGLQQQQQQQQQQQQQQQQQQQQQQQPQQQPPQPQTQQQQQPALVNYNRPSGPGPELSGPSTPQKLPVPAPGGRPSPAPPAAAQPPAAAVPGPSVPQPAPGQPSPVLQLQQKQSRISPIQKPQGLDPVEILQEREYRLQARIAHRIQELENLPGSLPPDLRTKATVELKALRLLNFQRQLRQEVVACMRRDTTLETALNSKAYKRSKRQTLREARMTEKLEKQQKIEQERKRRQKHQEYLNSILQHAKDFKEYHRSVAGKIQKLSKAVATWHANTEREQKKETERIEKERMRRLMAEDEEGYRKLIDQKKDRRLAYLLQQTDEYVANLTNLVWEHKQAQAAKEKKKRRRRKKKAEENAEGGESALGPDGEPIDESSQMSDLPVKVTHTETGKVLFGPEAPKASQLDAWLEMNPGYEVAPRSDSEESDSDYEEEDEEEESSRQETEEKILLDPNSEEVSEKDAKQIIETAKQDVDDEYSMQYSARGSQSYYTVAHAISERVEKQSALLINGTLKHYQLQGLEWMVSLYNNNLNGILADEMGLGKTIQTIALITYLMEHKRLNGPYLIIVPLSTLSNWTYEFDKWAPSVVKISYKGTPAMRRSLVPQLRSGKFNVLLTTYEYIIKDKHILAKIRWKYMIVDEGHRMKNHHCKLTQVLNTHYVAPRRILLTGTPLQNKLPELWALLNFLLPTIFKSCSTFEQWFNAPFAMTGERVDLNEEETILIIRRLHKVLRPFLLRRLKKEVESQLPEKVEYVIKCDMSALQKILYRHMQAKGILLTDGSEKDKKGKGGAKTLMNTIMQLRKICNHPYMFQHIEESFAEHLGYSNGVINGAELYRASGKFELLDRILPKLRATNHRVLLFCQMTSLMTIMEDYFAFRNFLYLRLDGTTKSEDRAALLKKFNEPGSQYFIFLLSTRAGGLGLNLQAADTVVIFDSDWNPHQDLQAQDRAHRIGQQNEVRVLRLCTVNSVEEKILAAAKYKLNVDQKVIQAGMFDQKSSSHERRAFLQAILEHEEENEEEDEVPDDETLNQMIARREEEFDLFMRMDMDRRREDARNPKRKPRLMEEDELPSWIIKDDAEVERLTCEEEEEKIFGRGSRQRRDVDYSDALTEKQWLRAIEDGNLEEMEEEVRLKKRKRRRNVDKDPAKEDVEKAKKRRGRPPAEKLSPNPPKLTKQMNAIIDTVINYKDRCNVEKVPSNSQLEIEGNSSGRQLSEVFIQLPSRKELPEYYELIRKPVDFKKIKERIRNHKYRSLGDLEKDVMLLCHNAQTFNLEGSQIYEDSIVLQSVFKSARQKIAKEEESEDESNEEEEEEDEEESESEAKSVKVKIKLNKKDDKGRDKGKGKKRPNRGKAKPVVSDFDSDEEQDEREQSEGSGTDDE

Compound: O=c1[nH]c2ccccc2nc1-c1cccs1
- EC50 [1]: > 91.1 µM (inactive)

Compound: Oc1nc2ccccc2nc1-c1cccs1
- EC50 [2]: > 91.1 µM (inactive)

Compound: CCCCn1c(NS(=O)(=O)c2ccc(C)cc2)c(C(=O)OCC)c2nc3ccccc3nc21
- IC50 [3]: > 128 µM (inactive)

Compound: CC(C)CCN=C(S)Nc1ccc2nc3n(c(=O)c2c1)CCCCC3
- AC50 [4]: 39.4 µM (active)

Compound: COC(=O)Nc1nnc(-c2ccccc2OC)s1
- IC50 [5]: 1.9 µM (active)

Compound: Cc1ccc(C2CC(C(F)(F)F)n3nc(C(=O)NCc4ccco4)cc3N2)cc1 (stereo unspecified)
- AC50 [6]: 1.94 µM (active)

Compound: CSc1nc(N)c(C#N)c(-c2ccccc2Cl)c1C#N
- IC50 [7]: 7.09 µM (active)
- EC50 [8]: > 29.9 µM (inactive)

Compound: O=C(NNC(=S)Nc1ccc(Cl)cc1)c1ccccc1
- IC50 [9]: > 122 µM (inactive)

Compound: NC(=O)c1cn(-c2ccccc2)nc1-c1cc2ccccc2oc1=O
- IC50 [7]: 13 µM (inactive)
- EC50 [8]: > 29.9 µM (inactive)

Compound: O=C(c1cc2ccccc2o1)N1CCN(S(=O)(=O)c2ccc(F)c(F)c2F)CC1
- IC50 [10]: > 80 µM (inactive)

Compound: CN1Cc2c(N3CCOCC3)nc3sc(C#N)c(N)c3c2CC1(C)C
- IC50 [5]: 1.06 µM (active)

Compound: COc1ccc([C@H]2CC(=O)C=C(C#CC(C)(C)C)C2)cc1
- IC50 [10]: > 80 µM (inactive)

Compound: COc1ccc(CNC(=O)NCCc2c[nH]c3ccccc23)cc1
- AC50 [6]: 1.87 µM (active)

Compound: O=C(Nc1cc(F)cc(F)c1)c1ccc(NCCc2ccccc2)c([N+](=O)[O-])c1
- EC50 [11]: > 99 µM (inactive)
- IC50 [12]: 26.2 µM (inactive)
- EC50 [13]: 88.4 µM (inactive)
- IC50 [14]: 14 µM (active)

Compound: Nc1ncnc2c1ncn2[C@@H]1O[C@H](CNCc2ccc(OCC(=O)Nc3nccs3)cc2)[C@@H](O)[C@H]1O
- AC50 [4]: 32.3 µM (active)

Compound: CCN(CC)CCNc1ccc(CO)c2oc3ccccc3c(=O)c12
- IC50 [12]: 22.3 µM (inactive)
- IC50 [14]: 28.4 µM (inactive)
- AC50 [15]: 18.7 µM (active)

Compound: CC(=O)c1cccc(-c2cnc3c(NC=O)cc(-c4ccc(N5CCN(C)CC5)cc4)cn23)c1
- EC50 [2]: > 91.2 µM (inactive)
- EC50 [1]: > 30.4 µM (inactive)

Compound: Cc1c(C(=O)NNC(=O)c2ccccc2O)oc2ccccc12
- IC50 [16]: > 94 µM (inactive)

Compound: COc1ccc(C(c2c(C)[nH]n(-c3ccccc3)c2=O)c2c(C)[nH]n(-c3ccccc3)c2=O)cc1OC
- IC50 [17]: 35.9 µM (active)
- IC50 [3]: 95.2 µM (inactive)
- EC50 [18]: 0.688 µM (active)
- AC50 [19]: 1.22 µM (active)

Compound: C/N=C(\S)NNC(=O)c1cccn(Cc2cccc(Cl)c2)c1=O
- IC50 [16]: > 94.1 µM (inactive)
